Experiment [1] deals with Mexican bean beetle (Epilachna varivestis). Nature of the experiment: Mexican Bean Beetle Test. The experiment is classed as in vivo. The settings on record: 600 grams per hectare, 48 hours after infestation, treated lima bean leaf. The method, then:
The test solution was sprayed using a moving single boom tee jet sprayer at a volume equivalent to 935 liters/ha onto a petri dish containing a lima bean (Phaseolus limensis var: Woods' Prolific) leaf placed on a moistened piece of filter paper. After the leaf dried it was infested with ten beetles (Epilachna varivestis) and covered. The percent control was evaluated 48 hours after infestation.

The test system of experiment [2] is Southern Root-Knot Nematode Meloidogyne incognita. Nature of the experiment: Nematode Screening Test. The experiment is classed as in vivo. The settings on record: 11400 grams per hectare; soil, cucumber roots, 21 days. The method, then: For the nematode test, soil was homogeneously inoculated with nematode eggs (Southern Root-Knot Nematode Meloidogyne incognita) at a rate of 20000 eggs per 200 milliliters (ml) of soil extracted from a macerated blend of tomato roots heavily knotted with the root-knot nematode. Ten ml of the 150 ppm test solution were added to 200 ml of the inoculated soil in a 16 oz. jar to give a concentration by volume of 11400 grams per hectare (gm/ha). […] The jars were shaken to ensure thorough mixing, immediately uncapped, and allowed to air for two hours. The soil was placed into a 7.5 cm plastic pot and three cucumber (Cucumis sativus) seeds were planted. The pots were held under greenhouse conditions for 21 days. Upon termination, the cucumber roots were examined for the presence of knots. Results are summarized in Table 2 and are expressed as percent knot reduction.

In experiment [3] the test system is southern corn rootworm, Diabrotica undecimpunctata howardi. Briefly: Corn Rootworm Screening Test. The settings on record: in Zea mays, soil, 240 h, read-out: Percent Control of Corn Rootworm.
Experiment [4] concerns Haemonchus contortus (McMaster, benzimidazole susceptible). Briefly: Anthelmintic Test, inhibition of larval development. To be noted: 144 h, read-out: MIC (minimum inhibitory concentration). The protocol:
(§1) Compounds were tested as inhibitors of larval development in Haemonchus contortus (McMaster, benzimidazole susceptible) isolates, Trichostrongylus colubriformis (McMaster susceptible) and Ostertagia circumcincta (Glenlothian susceptible).
(§2) Eggs of the parasitic helminths, isolated from sheep feces, were applied to wells of a microtiter plate which contained a gradient of concentrations of the test compound in nutrient solution. After the eggs hatched, L1 larvae developed through to the L3 stage over 6 days. Development was inhibited and a minimum inhibitory concentration in ppm was determined. See for example, E. Lacey et al p 177-184 in: Resistance of Parasites to Antiparasitic Drugs, edited by J. C. Boray MSD AGVET, Rahway, N.J.

The test system of experiment [5] is Ostertagia circumcincta (Glenlothian susceptible). Described as above. To be noted: Teladorsagia circumcincta, 144 h, read-out: MIC (minimum inhibitory concentration). The method, then:
as §1, §2

The test system of experiment [6] is Trichostrongylus colubriformis (McMaster susceptible). The experiment is described as above. The settings on record: 144 h, read-out: MIC (minimum inhibitory concentration). The protocol: as §1, §2
Experiment [7] concerns Potato leafhopper (Empoasca fabae). Nature of the experiment: Potato Leafhopper Test. The experiment is classed as in vivo. The settings on record: 600 grams per hectare; 72 hours after infestation; treated fava bean leaf; read-out: Percent Control of Potato leaf hopper. The protocol: The test solution was sprayed using a moving single boom tee jet sprayer at a volume equivalent to 935 liters/ha onto a petri dish containing a fava bean (Vicia faba) leaf placed on a moistened piece of filter paper. After the leaf dried it was infested with five mixed nymphs (Empoasca fabae) and covered. The percent control was evaluated 72 hours after infestation.

In brackets after ≈: the same amount, converted by molar mass.

`CCOP(=S)(OCC)N(NC(=O)C(Cl)(Cl)Cl)C(C)(C)C` [Compound 1, 1-(O,O-diethylthiophosphoryl)-1-tertbutyl-2-trichloroacetyl Hydrazine]: in experiment [1], the percent control at 600 g/ha amounted to 100%. In addition, in experiment [2], the “Percent Control of Root Knot Nematode (percent knot reduction)” value (“Percent Control … (percent knot reduction)” for short) was 98%. For the same compound, the mortality at 11400 g/ha, 11400 g/ha in experiment [3] came out at 100%.

For `CCCOP(=S)(OCCC)N(NC(=O)C(Cl)(Cl)Cl)C(C)(C)C` [Compound 2], the percent control at 600 g/ha in experiment [1] worked out at 100%. Also, the “Percent Control … (percent knot reduction)” value in experiment [2] was determined as 0%. Further, the mortality at 11400 g/ha, 11400 g/ha in experiment [3] turned out to be 87%.

On to `CCCOP(=S)(OCC)N(NC(=O)C(Cl)(Cl)Cl)C(C)(C)C` (centres unmarked) [Compound 3], for which the percent control at 600 g/ha in experiment [1] was 100%. The “Percent Control … (percent knot reduction)” value in experiment [2] came to 74%. Also, the mortality at 11400 g/ha, 11400 g/ha in experiment [3] was determined as 98%.

In experiment [1], `CCOP(=S)(OCC(C)(C)C)N(NC(=O)C(Cl)(Cl)Cl)C(C)(C)C` (centres unmarked) [Compound 4] returned a percent control at 600 g/ha of 100%. Further, in experiment [2], the “Percent Control … (percent knot reduction)” value stood at 0%. Moreover, in experiment [3], the mortality at 11400 g/ha, 11400 g/ha turned out to be 0%.

For `CCOP(=S)(OC(C)CC)N(NC(=O)C(Cl)(Cl)Cl)C(C)(C)C` (centres unmarked) [Compound 5], the percent control at 600 g/ha in experiment [1] came to 100%. Also, in experiment [2], the “Percent Control … (percent knot reduction)” value amounted to 0%. Further, the mortality at 11400 g/ha, 11400 g/ha in experiment [3] was 96%.

Compound `CCOP(=S)(OC(C)C)N(NC(=O)C(Cl)(Cl)Cl)C(C)(C)C` (centres unmarked) [Compound 6] had a percent control at 600 g/ha in experiment [1] of 100%. The “Percent Control … (percent knot reduction)” value in experiment [2] was 54%. The mortality at 11400 g/ha, 11400 g/ha in experiment [3] worked out at 100%.

Take `CCOP(=S)(OCC)N(NC(=O)C(F)(Cl)Cl)C(C)(C)C` [Compound 7]: the percent control at 600 g/ha in experiment [1] stood at 80%. For the same compound, the “Percent Control … (percent knot reduction)” value in experiment [2] turned out to be 0%. The mortality at 11400 g/ha, 11400 g/ha in experiment [3] was found to be 96%.

`CCOP(=S)(OCC)N(NC(=O)C(Br)(Br)Br)C(C)(C)C` [Compound 8] came in with a percent control at 600 g/ha in experiment [1] of 30%. In experiment [2], the “Percent Control … (percent knot reduction)” value is 98%. Also, in experiment [3], the mortality at 11400 g/ha, 11400 g/ha is 0%.

`COP(=S)(OC)N(NC(=O)C(Cl)(Cl)Cl)C(C)(C)C` [Compound 9]: the percent control at 600 g/ha in experiment [1] is 100%. For the same compound, the “Percent Control … (percent knot reduction)” value in experiment [2] is recorded as 100%. The mortality at 11400 g/ha, 11400 g/ha in experiment [3] was determined as 100%.

Take `CCOP(=S)(OCC)N(NC(=O)C(Cl)Cl)C(C)(C)C` [Compound 10, 1-(O,O-diethylthiophosphoryl)-1-tertbutyl-2-dichloroacetyl Hydrazine]: the percent control at 600 g/ha in experiment [1] is 100%. Besides, the “Percent Control … (percent knot reduction)” value in experiment [2] was determined as 100%. In addition, the values for the MIC in experiment [4], in experiment [5] and in experiment [6] were 1.56 µg/mL (≈ 4.44 µM), 1.56 µg/mL (≈ 4.44 µM) and 12.5 µg/mL (≈ 35.6 µM), respectively. The mortality at 11400 g/ha, 11400 g/ha in experiment [3] amounted to 0%.

`CCOP(=S)(OCC)N(NC(=O)CCl)C(C)(C)C` [Compound 11, 1-(O,O-diethylthiophosphoryl)-1-tertbutyl-2-monochloroacetyl Hydrazine]: the mortality at 600 g/ha, 600 g/ha in experiment [7] amounted to 100%. In addition, in experiment [2], the “Percent Control … (percent knot reduction)” value came to 43%. Also, the mortality at 11400 g/ha, 11400 g/ha in experiment [3] amounted to 0%.

With `CCOP(=S)(OCC)N(NC(=O)C(F)(F)F)C(C)(C)C` [Compound 12], the mortality at 600 g/ha, 600 g/ha in experiment [7] was determined as 100%. Moreover, the “Percent Control … (percent knot reduction)” value in experiment [2] is 0%. In addition, in experiment [3], the mortality at 11400 g/ha, 11400 g/ha is 100%.

As for `COP(=S)(OC)N(NC(=O)C(Cl)Cl)C(C)(C)C` [Compound 13], the mortality at 600 g/ha, 600 g/ha in experiment [7] stood at 100%. Moreover, the “Percent Control … (percent knot reduction)” value in experiment [2] was 100%. Also, in experiment [3], the mortality at 11400 g/ha, 11400 g/ha came to 0%.

As for `COP(=S)(OC)N(NC(=O)CCl)C(C)(C)C` [Compound 14], in experiment [7], the mortality at 600 g/ha, 600 g/ha came out at 100%. The “Percent Control … (percent knot reduction)” value in experiment [2] is 0%. The mortality at 11400 g/ha, 11400 g/ha in experiment [3] is 0%.

Take `CCOP(=S)(OCC)N(NC(=O)C(F)(F)Cl)C(C)(C)C` [Compound 15]: in experiment [7], the mortality at 600 g/ha, 600 g/ha was found to be 100%. In addition, the “Percent Control … (percent knot reduction)” value in experiment [2] is listed as 0%. Moreover, the mortality at 11400 g/ha, 11400 g/ha in experiment [3] worked out at 0%.

For `COCCOP(=S)(OCCOC)N(NC(=O)C(Cl)(Cl)Cl)C(C)(C)C` [Compound 16], the mortality at 600 g/ha, 600 g/ha in experiment [7] came to 100%. Besides, the “Percent Control … (percent knot reduction)” value in experiment [2] was 0%. For the same compound, the mortality at 11400 g/ha, 11400 g/ha in experiment [3] was 66%.

`COCCOP(=S)(OCCOC)N(NC(=O)C(Cl)Cl)C(C)(C)C` [Compound 17]: the mortality at 600 g/ha, 600 g/ha in experiment [7] turned out to be 60%. The “Percent Control … (percent knot reduction)” value in experiment [2] is 0%. Further, the mortality at 11400 g/ha, 11400 g/ha in experiment [3] was 0%.

In the case of `CCOP(=S)(OCCOC)N(NC(=O)C(Cl)(Cl)Cl)C(C)(C)C` (centres unmarked) [Compound 18], the mortality at 600 g/ha, 600 g/ha in experiment [7] was 100%. Besides, the “Percent Control … (percent knot reduction)” value in experiment [2] is given as 25%. Also, the mortality at 11400 g/ha, 11400 g/ha in experiment [3] came to 0%.

`CCOP(=S)(OCCOC)N(NC(=O)C(Cl)Cl)C(C)(C)C` (centres unmarked) [Compound 19]: the mortality at 600 g/ha, 600 g/ha in experiment [7] was determined as 100%. Besides, in experiment [2], the “Percent Control … (percent knot reduction)” value turned out to be 90%. Besides, the mortality at 11400 g/ha, 11400 g/ha in experiment [3] stood at 0%.

As for `CCOP(=S)(c1ccccc1)N(NC(=O)C(Cl)(Cl)Cl)C(C)(C)C` (centres unmarked) [Compound 22], the mortality at 600 g/ha, 600 g/ha in experiment [7] was 100%. For the same compound, the mortality at 11400 g/ha, 11400 g/ha in experiment [3] amounted to 0%.
